# Measured values: US6090780A (Chandon Prasad, priority 1999, dated 2000)
# Columns and labels:
# Type in all cases: in vivo
# C57BL mice [1] = assay: Voluntary alcohol consumption in alcohol naive mice (two-bottle choice); details: for % ETHANOL PREFERENCE (mean ± SEM): 7 days
# Experimental: Forty adult male C57BL mice were obtained from Jackson Laboratories and housed individually in light controlled rooms for a period of at least ten days after arrival with free access to Purina Chow and water. The lights were cycled on and off every twelve hour period. Mice were divided into four groups of ten. Each room was fitted with two 250 ml bottles having drip proof drinking spouts on both sides of a food bin containing Purina Chow. One bottle contained 6% (V/V) ethanol in water whereas the other bottle contained water. […] The two bottles were frequently exchanged with each other to minimize positional preference. Fluid intake from each bottle was recorded after 7 days.
# Ethanol preference was calculated as ethanol intake/(ethanol intake+water intake)×100.
# C57BL mice [2] = assay: Voluntary alcohol consumption in alcohol experienced mice (two-bottle choice); details: for ETHANOL PREFERENCE (%): 7 days
# Experimental: Forty adult male C57BL mice were obtained from Jackson Laboratories and housed individually in light controlled rooms for a period of at least ten days prior to beginning the experiment with free access to Purina Chow and water. The lights were cycled on and off every twelve hour period. The mice were divided into four groups of ten. Each room was fitted with two 250 ml bottles having drip proof drinking spouts on both sides of a food bin containing Purina Chow. Both bottles contained 6% (V/V) ethanol in water and were the only source of fluid available. Mice were allowed to drink for seven days. On the eighth day, one bottle containing ethanol in water was removed and replaced with a 250 ml bottle containing water. […] The bottles were frequently exchanged to discourage positional preference. Fluid intake from each bottle was recorded after an additional 7 days. % Ethanol preference was calculated for each group.
# Sprague-Dawley rats = assay: Effect of intraperitoneal and oral administration of CHP on food intake; details: for food intake, mean ± SEM, n = 6: 7 h after 21 h fast; for effect on food consumption: up to 50 mg/Kg of body weight
# Experimental: Thirty-six outbred adult male Sprague-Dawley rats, certified virus free, obtained from Hilltop Laboratories, New York, N.Y. were housed in a temperature and light controlled room for a period of at least seven days after arrival. Sprague-Dawley rats are white albino outbred rats. The temperature of the room was maintained at about 20-21° C. The lights in the room were cycled between on and off every twelve hours. The rats were allowed free access to Purina Chow food and water prior to beginning the experiment. For the experiment rats were divided into six groups of six rats each. […] The amount of CHP in each dose was based on the body weight of the individual rat. Rats were fasted for about 21 hours from food but not water. Oral dosages of CHP were administered using a gavage tube according to each rat group. The rats were then given access to Purina Chow and water for the next seven hours. Food intake during the seven hours was measured in grams per rat and averaged for each group. […] At the end of this period, the experiment was repeated using intraperitoneal administration.
# [3] = CHP 1 μg/ml fluid in each bottle
# [4] = CHP 5 μg/ml fluid in each bottle
# [5] = CHP 10 μg/ml fluid in each bottle
substance,measurement,setting,value
Histidyl-proline diketopiperazine [CHP],effect on average daily fluid intake,"C57BL mice [1]; ANOVA: F=0.09, p=0.96",did not effect
same,alcohol preference after CHP administration,"C57BL mice [1]; ANOVA: F=3.73, p=0.019",dose dependence decrease
same,AVERAGE FLUID INTAKE,C57BL mice [1]; [3],2.9 mL/day
same,% ETHANOL PREFERENCE (mean ± SEM),C57BL mice [1]; [3],29 ± 6%
same,AVERAGE FLUID INTAKE,C57BL mice [1]; [4],2.8 mL/day
same,% ETHANOL PREFERENCE (mean ± SEM),C57BL mice [1]; [4],23 ± 6%
same,AVERAGE FLUID INTAKE,C57BL mice [1]; [5],2.7 mL/day
same,% ETHANOL PREFERENCE (mean ± SEM),C57BL mice [1]; [5],15%
same,alcohol preference after CHP administration,"C57BL mice [2]; ANOVA: F=3.88, p=0.0195",dose dependence decrease
same,ETHANOL PREFERENCE (%),C57BL mice [2]; [3],58%
same,ETHANOL PREFERENCE (%),C57BL mice [2]; [4],54%
same,ETHANOL PREFERENCE (%),C57BL mice [2]; [5],40%
same,"food intake, mean ± SEM, n = 6","Sprague-Dawley rats; intraperitoneal, 1 mg/kg of body weight",17.6 ± 3.6 g/rat
same,"food intake, mean ± SEM, n = 6","Sprague-Dawley rats; intraperitoneal, 5 mg/kg of body weight",14.2 ± 0.7 g/rat
same,"food intake, mean ± SEM, n = 6","Sprague-Dawley rats; intraperitoneal, 10 mg/kg of body weight",14.1 ± 2.9 g/rat
same,"food intake, mean ± SEM, n = 6","Sprague-Dawley rats; intraperitoneal, 20 mg/kg of body weight",14.4 ± 1.0 g/rat
same,"food intake, mean ± SEM, n = 6","Sprague-Dawley rats; intraperitoneal, 50 mg/kg of body weight",14.7 ± 1.2 g/rat
same,effect on food consumption,"Sprague-Dawley rats; intraperitoneal, ANOVA F=1.86, p=0.13",no significant effect
same,"food intake, mean ± SEM, n = 6","Sprague-Dawley rats; oral, 1 mg/kg of body weight",14.3 ± 2.2 g/rat
same,"food intake, mean ± SEM, n = 6","Sprague-Dawley rats; oral, 5 mg/kg of body weight",14.7 ± 1.2 g/rat
same,"food intake, mean ± SEM, n = 6","Sprague-Dawley rats; oral, 10 mg/kg of body weight",13.1 ± 2.1 g/rat
same,"food intake, mean ± SEM, n = 6","Sprague-Dawley rats; oral, 20 mg/kg of body weight",15.1 ± 2.3 g/rat
same,"food intake, mean ± SEM, n = 6","Sprague-Dawley rats; oral, 50 mg/kg of body weight",15.7 ± 1.7 g/rat
same,effect on food consumption,"Sprague-Dawley rats; oral, ANOVA F=0.92",no significant effect
